What was measured:
[1] = Cytotoxicity toward MCF-7 breast carcinoma cells; format: cell-based; set-up: concentration or dose not given beside the values; conditions: human, read-out: cytotoxicity (%) toward MCF-7 (cell viability)
[2] = MTT cell viability of RAW 264.7 macrophages; format: cell-based; conditions: mouse, LPS-activated RAW 264.7 macrophages, MTT assay, read-out: cytotoxicity (%) toward RAW 264.7 (cell viability)
Procedure: (§1) The isolated compounds were also evaluated for their inhibitory effects against NO production in LPS-activated RAW 264.7 macrophages at the concentration of 50 μM following the same procedures in our previous study. The cell viability was further determined by the MTT assay to evaluate whether the inhibition on NO production was owing to the cytotoxicity.

[3] = test system: NO production in LPS-activated RAW 264.7 macrophages; assay: Inhibition of NO production in LPS-activated RAW 264.7 macrophages; format: cell-based; conditions: Mus musculus, RAW264.7, 50 μM, read-out: Inhibitions (%) on NO production
Procedure: as §1

[4] = Cytotoxicity toward MDA-MB-468 breast carcinoma cells; format: cell-based, human; set-up: viability: concentration or dose not given beside the values; conditions: human, MDA-MB-468 breast carcinoma cells; read-out: cytotoxicity (%) toward MDA-MB-468 (cell viability)
[5] = test system: α-glucosidase from Saccharomyces cerevisiae; assay: α-glucosidase inhibition assay (PNPG substrate); format: biochemical; conditions: for inhibition of α-glucosidase: initial concentration of 1 mM; for IC50: three replicates, read-out: IC50 against α-glucosidase
Procedure: The α-glucosidase inhibitory effect was assessed as follows. First, 0.2 U of α-glucosidase from Saccharomyces cerevisiae was purchased from Sigma-Aldrich (St. Louis, MO, USA), and was diluted in a 0.067 M phosphate buffer consisting of Na2HPO4·12H2O and KH2PO4 (pH 6.8). The assay was conducted in a 60 μL reaction system containing 20 μL of diluted enzyme solution, and 20μL of dimethyl sulfoxide (DMSO) or sample (dissolved in DMSO). […] The plate was incubated for an additional 20 min at 37 °C, and the reaction was quenched by adding 60 μL of 0.2 M Na2CO3. The final concentrations of tested compounds were between 0.2 and 2 mM. The optical density (OD) was measured at an absorbance wavelength of 405 nm using a Microplate Reader (Tecan, Mannedorf, Switzerland).

[6] = test system: RAW 264.7 cells; assay: MTT cell viability of RAW 264.7 macrophages; format: cell-based; conditions: MTT assay, 50 μM
Procedure: as §1

[7] = test system: MDA-MB-468 cells; assay: Cytotoxicity toward MDA-MB-468 breast carcinoma cells; format: cell-based, human; set-up: viability: concentration or dose not given beside the values; conditions: Homo sapiens, MDA-MB-468

## COc1c2c(c(C)c3c1C(=O)OC3)O[C@@]1(C)CC[C@@H](C(C)(C)O)[C@](C)(CCC(=O)O)[C@H]1C2 [Compound 4, austalide P acid]
[1]
  viability: 82.4%
[2]
  viability at 50 µM: 97.4%
[3]
  inhibition at 50 µM: 5.29%
[4]
  viability: 92.6%

## COC(=O)CC[C@]1(C)[C@H]2Cc3c(c(C)c4c(c3OC)C(=O)OC4)O[C@@]2(C)CC[C@H]1C(C)(C)O [Compound 2, austalide P]
[1]
  viability: 117%
[5]
  inhibition of α-glucosidase: more than 50%
  IC50: 910 ± 4 µM
[2]
  viability at 50 µM: 46.2%
[6]
  cytotoxicity (%) toward RAW 264.7 (cell viability): obvious cytotoxic effects
[3]
  inhibition at 50 µM: > 50%
[4]
  viability: 78.2%

## C=C1CC[C@@H]2[C@](C)(CCC[C@]2(C)C(=O)O)[C@H]1CC/C(C)=C/C(=O)O [Compound 11, agathic acid]
[1]
  viability: 83.5%
[5]
  inhibition of α-glucosidase: more than 50%
  IC50: 525 ± 2 µM
[2]
  viability at 50 µM: 89.9%
[3]
  inhibition at 50 µM: 4.85%
[4]
  viability: 89.3%

## C=C1CCC2C(C)(CCC(OC(C)=O)C2(C)C(=O)O)C1CCC(C)=CC(=O)O (stereo not drawn) [Compound 10, 3β-acetoxy-agathic acid]
[1]
  viability: 90%
[5]
  inhibition of α-glucosidase: low inhibition
[2]
  viability at 50 µM: 58.4%
[6]
  cytotoxicity (%) toward RAW 264.7 (cell viability): obvious cytotoxic effects
[4]
  viability: 94.5%

## COc1c2c(c(C)c3c1C(=O)OC3)OC1(C)CC(O)C34OC(O)(CCC3(C)C1C2)OC4(C)C (stereo not shown) [Compound 6, 17-O-demethylaustalide B]
[1]
  viability: 73.8%
[2]
  viability at 50 µM: 74.6%
[3]
  inhibition at 50 µM: -3.74%
[4]
  viability: 92.3%

## C=C1CCC2C(C)(CCC(O)C2(C)C(=O)O)C1CCC(C)=CC(=O)O (stereo not drawn) [Compound 9, 3β-hydroxy-agathic acid]
[1]
  viability: 88.8%
[5]
  inhibition of α-glucosidase: low inhibition
[2]
  viability at 50 µM: 83.3%
[3]
  inhibition at 50 µM: 7.81%
[4]
  viability: 92.1%

## COC(=O)CC[C@]1(C)[C@H]2Cc3c(c(C)c4c(c3OC)C(=O)OC4)O[C@@]2(C)C[C@@H](O)[C@H]1C(C)(C)O [Compound 3, austalide H]
[1]
  viability: 84.7%
[2]
  viability at 50 µM: 60.9%
[3]
  inhibition at 50 µM: -9.91%
[4]
  viability: 87.2%

## C=C(C)[C@@H]1CC[C@]2(C)Oc3c(C)c4c(c(OC)c3C[C@@H]2[C@@]1(C)CCC(=O)O)C(=O)OC4 [Compound 8, 13-deoxyaustalide Q acid]
[1]
  viability: 76.3%
[2]
  viability at 50 µM: 53.5%
[3]
  inhibition at 50 µM: 24%
[4]
  viability: 79.3%

## C=C(C)[C@@H]1[C@H](O)C[C@]2(C)Oc3c(C)c4c(c(OC)c3C[C@@H]2[C@@]1(C)CCC(=O)O)C(=O)OC4 [Compound 7, austalide Q acid]
[1]
  viability: 74.8%
[2]
  viability at 50 µM: 80.8%
[3]
  inhibition at 50 µM: -3.08%
[4]
  viability: 91.1%

## COC(=O)CCC1(C)C(C(C)(C)O)CCC2(C)Oc3c(C)c4c(c(O)c3CC21)C(=O)OC4 (stereo not shown) [Compound 1, austalide Y]
[1]
  viability: 104%
[2]
  viability at 50 µM: 33.1%
[6]
  cytotoxicity (%) toward RAW 264.7 (cell viability): obvious cytotoxic effects
[4]
  viability: 31.6%
[7]
  IC50: 38.9 ± 1.83 µM

## COc1c2c(c(C)c3c1C(=O)OC3)O[C@@]1(C)C[C@@H](O)[C@@H](C(C)(C)O)[C@](C)(CCC(=O)O)[C@H]1C2 [Compound 5, austalide H acid]
[1]
  viability: 69.1%
[2]
  viability at 50 µM: 104%
[3]
  inhibition at 50 µM: 12.1%
[4]
  viability: 87.3%

Source: article PMC7143578, “Terpenoids from the Deep-Sea-Derived Fungus Penicillium thomii YPGA3 and Their Bioactivities” (Marine Drugs, 2020)
